Measurements as given in patent US7592336B2, “Hepatitis C virus inhibitors” (Bristol-Myers Squibb Company, priority 2005, dated 2009).

Tests used:
[1] = target: T1, HCV NS3/4A protease complex, BMS strain (UniProt P27958, species not given/STRAIN_BMS); test: FRET peptide assay to monitor HCV NS3/4A proteolytic activity (BMS strain); assay type: biochemical, HCV genotype 1a; settings: NS3/4A BMS strain; read-out: Activity Range (IC50)
T1 construct: said of H77 and J4L6S, not expressly of BMS; fused on or other part: A three-lysine solubilising tail at the NS4A C-terminus and purification on Ni-NTA are described for the H77 and J4L6S constructs
T1 sequence (P27958 1027-1657, change not shown, one chain of several): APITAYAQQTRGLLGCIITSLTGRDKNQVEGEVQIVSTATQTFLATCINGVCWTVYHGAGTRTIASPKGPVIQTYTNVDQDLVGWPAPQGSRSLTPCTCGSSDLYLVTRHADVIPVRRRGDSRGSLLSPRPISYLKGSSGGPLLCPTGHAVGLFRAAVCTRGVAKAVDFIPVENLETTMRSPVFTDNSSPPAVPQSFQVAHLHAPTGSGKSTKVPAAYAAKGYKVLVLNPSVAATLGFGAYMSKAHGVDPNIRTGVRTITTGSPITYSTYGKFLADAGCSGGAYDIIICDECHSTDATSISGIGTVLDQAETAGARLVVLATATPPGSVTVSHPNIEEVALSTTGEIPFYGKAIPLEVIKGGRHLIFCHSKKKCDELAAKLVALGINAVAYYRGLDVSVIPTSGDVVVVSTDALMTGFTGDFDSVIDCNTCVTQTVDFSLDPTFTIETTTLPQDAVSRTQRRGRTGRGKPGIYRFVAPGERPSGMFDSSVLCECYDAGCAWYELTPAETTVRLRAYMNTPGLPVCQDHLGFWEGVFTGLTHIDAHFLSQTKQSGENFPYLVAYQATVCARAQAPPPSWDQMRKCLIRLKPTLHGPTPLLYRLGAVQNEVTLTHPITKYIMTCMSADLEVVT
From the text: HCV NS3 protease complexes, derived from the BMS strain, H77 strain or J4L6S strain, were generated, as described below. These purified recombinant proteins were generated for use in a homogeneous assay (see below) to provide an indication of how effective compounds of the present disclosure would be in inhibiting HCV NS3 proteolytic activity.
Serum from an HCV-infected patient was obtained from Dr. T. Wright, San Francisco Hospital. An engineered full-length cDNA (compliment deoxyribonucleic acid) template of the HCV genome (BMS strain) was constructed from DNA fragments obtained by reverse transcription-PCR (RT-PCR) of serum RNA (ribonucleic acid) and using primers selected on the basis of homology between other genotype 1a strains. From the determination of the entire genome sequence, a genotype 1a was assigned to the HCV isolate according to the classification of Simmonds et al. (See P Simmonds, K A Rose, S Graham, S W Chan, F McOmish, B C Dow, E A Follett, P L Yap and H Marsden, J. Clin. Microbiol., 31(6), 1493-1503 (1993)). […] The infectious clones, H77 (1a genotype) and J4L6S (1b genotype) were obtained from R. Purcell (NIH) and the sequences are published in Genbank (AAB67036, see Yanagi, M., Purcell, R. H., Emerson, S. U. and Bukh, J. Proc. Natl. Acad. Sci. U.S.A. 94(16), 8738-8743 (1997); AF054247, see Yanagi, M., St Claire, M., Shapiro, M., Emerson, S. U., Purcell, R. H. and Bukh, J, Virology 244 (1), 161-172. (1998)).
NS3/4A protease complex-containing fractions were pooled and loaded on a desalting column Superdex-S200 pre-equilibrated with buffer D (25 mM HEPES, pH 7.5, 20% glycerol, 300 mM NaCl, 0.2% Triton X-100, 10 mM βME). Sample was loaded at a flow rate of 1 mL/min. NS3/4A protease complex-containing fractions were pooled and concentrated to approximately 0.5 mg/ml. The purity of the NS3/4A protease complexes, derived from the BMS, H77 and J4L6S strains, were judged to be greater than 90% by SDS-PAGE and mass spectrometry analyses. The enzyme was stored at −80° C., thawed on ice and diluted prior to use in assay buffer.
The purpose of this in vitro assay was to measure the inhibition of HCV NS3 protease complexes, derived from the BMS strain, H77 strain or J4L6S strain, as described above, by compounds of the present disclosure. This assay provides an indication of how effective compounds of the present disclosure would be in inhibiting HCV NS3 proteolytic activity.
In order to monitor HCV NS3/4A protease activity, an NS3/4A peptide substrate was used. The substrate was RET S1 (Resonance Energy Transfer Depsipeptide Substrate; AnaSpec, Inc. cat #22991) (FRET peptide), described by Taliani et al. in Anal. Biochem. 240(2):60-67 (1996). The sequence of this peptide is loosely based on the NS4A/NS4B natural cleavage site for the HCV NS3 protease except there is an ester linkage rather than an amide bond at the cleavage site. The peptide also contains a fluorescence donor, EDANS, near one end of the peptide and an acceptor, DABCYL, near the other end. The fluorescence of the peptide is quenched by […] resonance energy transfer (RET) between the donor and the acceptor, but as the NS3 protease cleaves the peptide the products are released from RET quenching and the fluorescence of the donor becomes apparent.
The peptide substrate was incubated with one of the three recombinant NS3/4A protease complexes, in the absence or presence of a compound of the present disclosure. The inhibitory effects of a compound were determined by monitoring the formation of fluorescent reaction product in real time using a Cytofluor Series 4000.
Assay buffer: 50 mM HEPES, pH 7.5; 0.15M NaCl; 0.1% Triton; 15% Glycerol; 10 mM βME. Substrate: 2 μM final concentration (from a 2 mM stock solution in DMSO stored at −20° C.). HCV NS3/4A protease type 1a (1b), 2-3 nM final concentration (from a 5 μM stock solution in 25 mM HEPES, pH 7.5, 20% glycerol, 300 mM NaCl, 0.2% Triton-X100, 10 mM βME). […]

[2] = tested on: HCV replicon in HUH-7 cells; test: HCV replicon FRET assay; assay type: cell-based, HCV strain 1b; settings: Hepatitis C virus, Huh-7; HCV replicon cell assay; read-out: Activity Range (EC50)
From the text: An HCV replicon whole cell system was established as described by Lohmann V, Korner F, Koch J, Herian U, Theilmann L, Bartenschlager R., Science 285(5424):110-3 (1999). This system enabled us to evaluate the effects of our HCV Protease compounds on HCV RNA replication. Briefly, using the HCV strain 1b sequence described in the Lohmann paper (Assession number: AJ238799), an HCV cDNA was synthesized by Operon Technologies, Inc. (Alameda, Calif.), and the full-length replicon was then assembled in plasmid pGem9zf(+) (Promega, Madison, Wis.) using standard molecular biology techniques. The replicon consists of (i) the HCV 5′ UTR fused to the first 12 amino acids of the capsid protein, (ii) the neomycin phosphotransferase gene (neo), (iii) the IRES from encephalomyocarditis virus (EMCV), and (iv) HCV NS3 to NS5B genes and the HCV 3′ UTR. Plasmid DNAs were linearized with ScaI and RNA transcripts were synthesized in vitro using the T7 MegaScript transcription kit (Ambion, Austin, Tex.) according to manufacturer's directions. In vitro transcripts of the cDNA were transfected into the human hepatoma cell line, HUH-7. […] Resulting cell lines were characterized for positive and negative strand RNA production and protein production over time.
The HCV replicon FRET assay was developed to monitor the inhibitory effects of compounds described in the disclosure on HCV viral replication. HUH-7 cells, constitutively expressing the HCV replicon, were grown in Dulbecco's Modified Eagle Media (DMEM) (Gibco-BRL) containing 10% Fetal calf serum (FCS) (Sigma) and 1 mg/ml G418 (Gibco-BRL). Cells were seeded the night before (1.5×10^4 cells/well) in 96-well tissue-culture sterile plates. Compound and no compound controls were prepared in DMEM containing 4% FCS, 1:100 Penicillin/Streptomysin (Gibco-BRL), 1:100 L-glutamine and 5% DMSO in the dilution plate (0.5% DMSO final concentration in the assay). Compound/DMSO mixes were added to the cells and incubated for 4 days at 37° C. After 4 days, cells were first assessed for cytotoxicity using alamar Blue (Trek Diagnotstic Systems) for a CC50 reading. The toxicity of compound (CC50) was determined by adding 1/10th volume of alamar Blue to the media incubating the cells. After 4 h, the fluorescence signal from each well was read, with an excitation wavelength at 530 nm and an emission wavelength of 580 nm, using the Cytofluor Series 4000 (Perspective Biosystems). Plates were then rinsed thoroughly with Phosphate-Buffered Saline (PBS) (3 times 150 μl). The cells were lysed with 25 μl of a lysis assay reagent containing an HCV protease substrate (5× cell Luciferase cell culture lysis reagent (Promega #E153A) diluted to 1× with distilled water, NaCl added to 150 mM final, the FRET peptide substrate (as described for the enzyme assay above) diluted to 10 μM final from a 2 mM stock in 100% DMSO. […]. The plate was then placed into the Cytofluor 4000 instrument which had been set to 340 nm excitation/490 nm emission, automatic mode for 21 cycles and the plate read in a kinetic mode. EC50 determinations were carried out as described for the IC50 determinations.

| Compound | IC50 [1] | EC50 [2] |
| --- | --- | --- |
| C=C[C@@H]1C[C@]1(NC(=O)[C@@H]1C[C@@](O)(c2ccc(F)c(C)c2)CN1C(=O)[C@@H](NC(=O)OC(C)(C)C)C(C)(C)C)C(=O)NS(=O)(=O)C1CC1 [Compound 22] | 100 to 1000 nM | 1 to 10 µM |
| C=C[C@@H]1C[C@]1(NC(=O)[C@@H]1C[C@@](O)(c2ccc(C)c(F)c2)CN1C(=O)[C@@H](NC(=O)OC(C)(C)C)C(C)(C)C)C(=O)NS(=O)(=O)C1CC1 [Compound 23] | 100 to 1000 nM | 1 to 10 µM |
| C=C[C@@H]1C[C@]1(NC(=O)[C@@H]1C[C@@](O)(c2cc(C)ccc2C)CN1C(=O)[C@@H](NC(=O)OC(C)(C)C)C(C)(C)C)C(=O)NS(=O)(=O)C1CC1 [Compound 24] | 100 to 1000 nM | 1 to 10 µM |
| C=C[C@@H]1C[C@]1(NC(=O)[C@@H]1C[C@@](O)(c2cc(F)ccc2OC)CN1C(=O)[C@@H](NC(=O)OC(C)(C)C)C(C)(C)C)C(=O)NS(=O)(=O)C1CC1 [Compound 25] | 100 to 1000 nM | 1 to 10 µM |
